Measurements: patent US12310929B2, “Use of rasagiline for the treatment of restless legs syndrome” (TEVA PHARMACEUTICAL INDUSTRIES, LTD., priority 2006, dated 2025)
Like-named read-outs stand apart in the source and are kept apart here.

How the values were obtained:
[1] = test system: RLS subjects
Experimental: (§1) This was the first clinical study in which rasagiline was administered to RLS subjects. The dosage regimen of 1 mg/day rasagiline was chosen based on the optimal dosage regimen for the symptomatic treatment of PD. […] Therefore, in the event that a subject could not tolerate the 1 mg daily dose of rasagiline, a daily dose of 0.5 mg rasagiline was permitted. Rasagiline was administered orally as a tablet. Both the 1 mg and 0.5 mg rasagiline tablets were beveled round tablets, flat, white to off-white, scored on one side, plain on the other side. Teva Pharmaceutical Industries Ltd. was responsible for the manufacture and primary packaging of study medications according to current Good Manufacturing Practice (cGMP) principles and guidelines applicable to investigational medicinal products.
The Sleep Scale is a 12-item scale that provides a comprehensive view across almost all dimensions of sleep including daytime somnolence, sleep disturbance, sleep adequacy and sleep quantity. The investigator scored subjects on this scale at the baseline and Week 4, and 8 visits. The change from baseline to each post-baseline study visit was calculated as a secondary efficacy endpoint. (Hays, R. D. & Steward, A. L. (1992). Sleep measures. In A. L. Stewart & J. E. Ware (eds.), Measuring functioning and well-being: The Medical Outcomes Study approach (pp. 235-259), Durham, NC: Duke University Press.
N is the number of participants in the study. A low score indicates the absence of problems and a high score indicates a very severe problem.

[2] = test system: RLS subjects; settings: for IRLS QoL Total (Absolute Change) Mean / IRLS QoL Total (Absolute Change) Median / IRLS QoL Total (Percent Change) Mean / IRLS QoL Total (Percent Change) Median / IRLS QoL Total Mean / IRLS QoL Total Median: rasagiline 1 mg/day oral
Experimental: as §1
The Restless Leg Syndrome Quality of Life questionnaire (RLS QoL) assesses the impact of RLS on daily life, emotional well-being, social life and work life. It is an 18-item questionnaire with a total score ranging 0 to 100. […] The lower the score, the greater the impact of RLS on quality of life.
The RLS QoL questionnaire was completed by the investigator at the baseline and Week 4, and 8 visits. The change from baseline to each post-baseline study visit was calculated as an additional efficacy endpoint.

[3] = test system: RLS subjects; settings: for CGI-I Total Mean / CGI-I Total Median: scale 1-7, rasagiline 1 mg/day oral
Experimental: as §1
Subjects were scored on this scale at weeks 2, 4, and 8. The mean score at each of these time points was calculated as a secondary efficacy endpoint.

[4] = VISIT WEEK 8, N=1, rasagiline 1 mg/day oral
[5] = by eight weeks, remaining subject

C#CCN[C@@H]1CCc2ccccc21 [rasagiline, R-(+)-N-propargyl-1-aminoindan]
Sleep Adequacy (Percent Change) Mean [1, 4]: 66.67% | Sleep Adequacy (Percent Change) Median [1, 4]: 66.67% | Sleep Adequacy Mean [1, 4]: 100.00 | Sleep Adequacy Median [1, 4]: 100.00 | Sleep Disturbance (Absolute Change) Mean [1, 4]: −16.25 | Sleep Disturbance (Absolute Change) Median [1, 4]: −16.25 | Sleep Disturbance (Percent Change) Mean [1, 4]: −43.33% | Sleep Disturbance (Percent Change) Median [1, 4]: −43.33% | Sleep Disturbance Scale Mean [1, 4]: 21.25 | Sleep Disturbance Scale Median [1, 4]: 21.25 | Sleep Problems Index I (Absolute Change) Mean [1, 4]: −16.67 | Sleep Problems Index I (Absolute Change) Median [1, 4]: −16.67 | Sleep Problems Index I (Percent Change) Mean [1, 4]: −100.00% | Sleep Problems Index I (Percent Change) Median [1, 4]: −100.00% | Sleep Problems Index I Mean [1, 4]: 0.00 | Sleep Problems Index I Median [1, 4]: 0.00 | Sleep Problems Index II (Absolute Change) Mean [1, 4]: −16.11 | Sleep Problems Index II (Absolute Change) Median [1, 4]: −16.11 | Sleep Problems Index II (Percent Change) Mean [1, 4]: −58.00% | Sleep Problems Index II (Percent Change) Median [1, 4]: −58.00% | Sleep Problems Index II Mean [1, 4]: 11.67 | Sleep Problems Index II Median [1, 4]: 11.67 | Sleep Quantity (Absolute Change) Mean [1, 4]: 0.00 | Sleep Quantity (Absolute Change) Median [1, 4]: 0.00 | Sleep Quantity (Percent Change) Mean [1, 4]: 0.00% | Sleep Quantity (Percent Change) Median [1, 4]: 0.00% | Sleep Quantity (raw score) Mean [1, 4]: 7.00 | Sleep Quantity (raw score) Median [1, 4]: 7.00 | Sleep Short of Breath (Absolute Change) Mean [1, 4]: 0.00 | Sleep Short of Breath (Absolute Change) Median [1, 4]: 0.00 | Sleep Snoring (Absolute Change) Mean [1, 4]: 20.00 | Sleep Snoring (Absolute Change) Median [1, 4]: 20.00 | Sleep Snoring (Percent Change) Mean [1, 4]: 25.00% | Sleep Snoring (Percent Change) Median [1, 4]: 25.00% | Sleep Somnolence (Absolute Change) Mean [1, 4]: 0.00 | Sleep Somnolence (Absolute Change) Median [1, 4]: 0.00 | Sleep Somnolence (Percent Change) Mean [1, 4]: 0.00% | Sleep Somnolence (Percent Change) Median [1, 4]: 0.00% | Snoring Scale Mean [1, 4]: 100.00 | Snoring Scale Median [1, 4]: 100.00 | Somnolence Scale Mean [1, 4]: 13.33 | Somnolence Scale Median [1, 4]: 13.33 | improvement in the Sleep Problems Index II [1, 5]: 58% | IRLS QoL Total (Absolute Change) Mean ([2]; VISIT WEEK 4, N=2): 16.67 | IRLS QoL Total (Absolute Change) Median ([2]; VISIT WEEK 4, N=2): 16.67 | IRLS QoL Total (Percent Change) Mean ([2]; VISIT WEEK 4, N=2): 35.19% | IRLS QoL Total (Percent Change) Median ([2]; VISIT WEEK 4, N=2): 35.19% | IRLS QoL Total Mean ([2]; VISIT WEEK 4, N=2): 62.92 | IRLS QoL Total Median ([2]; VISIT WEEK 4, N=2): 62.92 | IRLS QoL Total (Absolute Change) Mean ([2]; VISIT WEEK 8, N=1): 25.00 | IRLS QoL Total (Absolute Change) Median ([2]; VISIT WEEK 8, N=1): 25.00 | IRLS QoL Total (Percent Change) Mean ([2]; VISIT WEEK 8, N=1): 37.04% | IRLS QoL Total (Percent Change) Median ([2]; VISIT WEEK 8, N=1): 37.04% | IRLS QoL Total Mean ([2]; VISIT WEEK 8, N=1): 92.50 | IRLS QoL Total Median ([2]; VISIT WEEK 8, N=1): 92.50 | improvement in the IRLS Quality of Life Questionnaire compared to baseline [2, 5]: 37% | CGI-I Total Mean ([3]; VISIT WEEK 2, N=2): 3.50 | CGI-I Total Median ([3]; VISIT WEEK 2, N=2): 3.0 | CGI-I Total Mean ([3]; VISIT WEEK 4, N=2): 3.50 | CGI-I Total Median ([3]; VISIT WEEK 4, N=2): 3.50 | CGI-I Total Mean ([3]; VISIT WEEK 8, N=1): 1.00 | CGI-I Total Median ([3]; VISIT WEEK 8, N=1): 4.00 | RLS symptoms on the CGI-I rating scale [3, 5]: Very Much Improved
